Counter-ions that a name gives are not always drawn.
How the values were obtained:
Test in all cases: Bacterial Susceptibility Test, zone size
Assay type in all cases: cell-based
Pseudomonas auriginosa = test system: Pseudomonas auriginosa
Experimental: (§1) The combination of amikacin and cefepime on different microorganisms was taken to analyze the efficiency of combination in comparison with the individual components of the drug. Different concentrations were selected mentioned to as highest, high, low and lowest in the data. Zone size was determined in mm.

E. coli = test system: E. coli
Experimental: as §1

Streptococcus pneumoniae = test system: Streptococcus pneumoniae
Experimental: as §1

Staphylococcus aureus = test system: Staphylococcus aureus
Experimental: as §1

Enterococcus faecalis = test system: Enterococcus faecalis
Experimental: as §1

Klebsiella pneumoniae = test system: Klebsiella pneumoniae
Experimental: as §1

| SMILES | Zone (Pseudomonas auriginosa; concentration High) [mm] | Zone (Pseudomonas auriginosa; concentration Highest) [mm] | Zone (Pseudomonas auriginosa; concentration Low) [mm] | Zone (Pseudomonas auriginosa; concentration Lowest) [mm] | Zone (E. coli; concentration High) [mm] | Zone (E. coli; concentration Highest) [mm] | Zone (E. coli; concentration Low) [mm] | Zone (E. coli; concentration Lowest) [mm] | Zone (Streptococcus pneumoniae; concentration High) [mm] | Zone (Streptococcus pneumoniae; concentration Highest) [mm] | Zone (Streptococcus pneumoniae; concentration Low) [mm] | Zone (Streptococcus pneumoniae; concentration Lowest) [mm] | Zone (Staphylococcus aureus; concentration High) [mm] | Zone (Staphylococcus aureus; concentration Highest) [mm] | Zone (Staphylococcus aureus; concentration Low) [mm] | Zone (Staphylococcus aureus; concentration Lowest) [mm] | Zone (Enterococcus faecalis; concentration High) [mm] | Zone (Enterococcus faecalis; concentration Highest) [mm] | Zone (Enterococcus faecalis; concentration Low) [mm] | Zone (Enterococcus faecalis; concentration Lowest) [mm] | further results |
| --- | --- | --- | --- | --- | --- | --- | --- | --- | --- | --- | --- | --- | --- | --- | --- | --- | --- | --- | --- | --- | --- |
| CO/N=C(\C(=O)N[C@@H]1C(=O)N2C(C(=O)O)=C(C[N+]3(C)CCCC3)CS[C@H]12)c1csc(N)n1.Cl.O.[Cl-] [Cefepime, 1-[[(6R,7R)-7-[2-(2-amino-4-thiazolyl)-glyoxylamido]-2-carboxy-8-oxo-5-thia-1-azabicyclo[4.2.0]oct-2-en-3-yl]methyl]-1-methyl-pyrrolidinium chloride, 7^2-(Z)-(O-methyloxime), monohydrochloride, monohydrate] | 27.56 | 30.94 | 18.81 | 12.08 | 30.16 | 32.24 | 24.20 | 16.42 | 28.10 | 30.32 | 23.02 | 19.54 | 28.44 | 31.06 | 21.18 | 16.24 | 25.52 | 28.98 | 19.92 | 12.65 | Zone (Klebsiella pneumoniae; concentration High): 32.35 mm; Zone (Klebsiella pneumoniae; concentration Highest): 36.02 mm; Zone (Klebsiella pneumoniae; concentration Low): 31.96 mm; Zone (Klebsiella pneumoniae; concentration Lowest): 30.83 mm |
| NCC[C@H](O)C(=O)N[C@@H]1C[C@H](N)[C@@H](O[C@H]2O[C@H](CN)[C@@H](O)[C@H](O)[C@H]2O)[C@H](O)[C@H]1O[C@H]1O[C@H](CO)[C@@H](O)[C@H](N)[C@H]1O [Amikacin, D-Streptamine, O-3-amino-3-deoxy-α-d-glucopyranosyl)1→6)-O-[6-amino-6-deoxy-α-D-glucopyranosyl(1→4)]-N^1-(4-amino-2-hydroxy-1-oxobutyl)-2-deoxy-,(S)-,sulfate (1:2)(salt)] | 21.81 | 26.93 | 16.05 | 09.81 | 29.02 | 30.90 | 22.06 | 15.02 | 24.28 | 26.58 | 18.34 | 12.32 | 24.42 | 28.92 | 18.79 | 10.09 | 23.24 | 27.29 | 17.97 | 08.05 | Zone (Klebsiella pneumoniae; concentration High): 31.25 mm; Zone (Klebsiella pneumoniae; concentration Highest): 34.98 mm; Zone (Klebsiella pneumoniae; concentration Low): 31.02 mm; Zone (Klebsiella pneumoniae; concentration Lowest): 29.98 mm |
